Source: the OligoGym collection
HELM strings list units from the 5' end as sugar, base in round brackets, then linkage (d deoxyribose, r ribose, m 2'-O-methyl, p phosphodiester). Strings are as the collection lists them; they lack the last nucleoside at the 3' end of the tested compound. [moe] = 2'-O-(2-methoxyethyl) (MOE); [sp] = phosphorothioate linkage; [m5C] = 5-methylcytosine

Molecular target: ATXN2
Assay: mouse, dose not given
Conditions: ASO

Substance	3 h FOB score
RNA1{[moe](T)[sp].[moe]([m5C])p.[moe](T)p.[moe]([m5C])p.[moe]([m5C])p.d(A)[sp].d(T)[sp].d(T)[sp].d(A)[sp].d(T)[sp].d(T)[sp].d(T)[sp].d([m5C])[sp].d(T)[sp].d(T)[sp].[moe]([m5C])p.[moe](A)p.[moe]([m5C])[sp].[moe](G)}$$$$ (last 3' nucleoside missing)	0.75 score 0-7
RNA1{[moe](T)[sp].[moe]([m5C])p.[moe]([m5C])p.[moe](A)p.[moe](A)p.d(G)[sp].d(T)[sp].d(A)[sp].d(A)[sp].d([m5C])[sp].d(A)[sp].d(G)[sp].d(T)[sp].d(G)[sp].d(T)[sp].[moe](A)p.[moe](G)p.[moe](A)[sp].[moe](A)}$$$$ (last 3' nucleoside missing)	4 score 0-7
RNA1{[moe](T)[sp].[moe]([m5C])p.[moe]([m5C])p.[moe](A)p.[moe](A)p.d(T)[sp].d(T)[sp].d(T)[sp].d([m5C])[sp].d(A)[sp].d(G)[sp].d(A)[sp].d([m5C])[sp].d(T)[sp].d(T)[sp].[moe]([m5C])p.[moe](T)p.[moe](T)[sp].[moe](G)}$$$$ (last 3' nucleoside missing)	2 score 0-7
RNA1{[moe](T)[sp].[moe]([m5C])p.[moe]([m5C])p.[moe](A)p.[moe](T)p.d(T)[sp].d(A)[sp].d(T)[sp].d(T)[sp].d(T)[sp].d([m5C])[sp].d(T)[sp].d(T)[sp].d([m5C])[sp].d(A)[sp].[moe]([m5C])p.[moe](G)p.[moe](T)[sp].[moe](T)}$$$$ (last 3' nucleoside missing)	1 score 0-7
RNA1{[moe](T)[sp].[moe]([m5C])p.[moe]([m5C])p.[moe](T)p.[moe](A)[sp].d(T)[sp].d([m5C])[sp].d(A)[sp].d(T)[sp].d([m5C])[sp].d(A)[sp].d(T)[sp].d(T)[sp].[moe](T)p.[moe](T)p.[moe]([m5C])[sp].[moe]([m5C])}$$$$ (last 3' nucleoside missing)	1 score 0-7
RNA1{[moe](T)[sp].[moe]([m5C])p.[moe]([m5C])p.[moe](T)p.[moe](A)p.d(T)[sp].d([m5C])[sp].d(A)[sp].d(T)[sp].d([m5C])[sp].d(A)[sp].d(T)[sp].d(T)[sp].d(T)[sp].d(T)[sp].[moe]([m5C])p.[moe]([m5C])p.[moe](A)[sp].[moe](G)}$$$$ (last 3' nucleoside missing)	3.75 score 0-7
RNA1{[moe](T)[sp].[moe]([m5C])p.[moe]([m5C])p.[moe](T)p.[moe](T)p.d(G)[sp].d(T)[sp].d(T)[sp].d(G)[sp].d(T)[sp].d(A)[sp].d(T)[sp].d(G)[sp].d(G)[sp].d(T)[sp].[moe](A)p.[moe](A)p.[moe](T)[sp].[moe](T)}$$$$ (last 3' nucleoside missing)	5 score 0-7
RNA1{[moe]([m5C])[sp].[moe](A)p.[moe](G)p.[moe](A)p.[moe](A)p.d(A)[sp].d(G)[sp].d([m5C])[sp].d(T)[sp].d(G)[sp].d(T)[sp].d(G)[sp].d(T)[sp].d(G)[sp].d(T)[sp].[moe](T)p.[moe](T)p.[moe](A)[sp].[moe](A)}$$$$ (last 3' nucleoside missing)	6 score 0-7
RNA1{[moe]([m5C])[sp].[moe](A)p.[moe](G)p.[moe](T)p.[moe](G)p.d(T)[sp].d(T)[sp].d(G)[sp].d([m5C])[sp].d(A)[sp].d([m5C])[sp].d(A)[sp].d(T)[sp].d(A)[sp].d(G)[sp].[moe](G)p.[moe](T)p.[moe](T)[sp].[moe](A)}$$$$ (last 3' nucleoside missing)	5 score 0-7
RNA1{[moe]([m5C])[sp].[moe](A)p.[moe](G)p.[moe](T)p.[moe](G)p.d([m5C])[sp].d([m5C])[sp].d(T)[sp].d(T)[sp].d(T)[sp].d(A)[sp].d([m5C])[sp].d([m5C])[sp].d([m5C])[sp].d([m5C])[sp].[moe](T)p.[moe](T)p.[moe](G)[sp].[moe](A)}$$$$ (last 3' nucleoside missing)	5.25 score 0-7
RNA1{[moe]([m5C])[sp].[moe](A)p.[moe](G)p.[moe]([m5C])p.[moe](A)p.d(T)[sp].d(G)[sp].d(A)[sp].d(T)[sp].d([m5C])[sp].d(T)[sp].d(T)[sp].d(G)[sp].d(T)[sp].d(G)[sp].[moe](T)p.[moe](A)p.[moe](T)[sp].[moe](A)}$$$$ (last 3' nucleoside missing)	2.25 score 0-7
RNA1{[moe]([m5C])[sp].[moe](A)p.[moe](G)p.[moe]([m5C])p.[moe](T)p.d([m5C])[sp].d(T)[sp].d(G)[sp].d(T)[sp].d(T)[sp].d([m5C])[sp].d(G)[sp].d(A)[sp].d(T)[sp].d(G)[sp].[moe]([m5C])p.[moe](A)p.[moe](G)[sp].[moe](G)}$$$$ (last 3' nucleoside missing)	6.25 score 0-7
RNA1{[moe]([m5C])[sp].[moe](A)p.[moe](T)p.[moe](A)p.[moe]([m5C])p.d(G)[sp].d([m5C])[sp].d(G)[sp].d(G)[sp].d(T)[sp].d(G)[sp].d(A)[sp].d(A)[sp].d(T)[sp].d(T)[sp].[moe]([m5C])p.[moe](T)p.[moe](G)[sp].[moe](T)}$$$$ (last 3' nucleoside missing)	4 score 0-7
RNA1{[moe]([m5C])[sp].[moe](A)p.[moe](T)p.[moe](T)p.[moe](T)p.d(T)[sp].d(G)[sp].d(A)[sp].d(A)[sp].d(T)[sp].d(T)[sp].d(A)[sp].d([m5C])[sp].d(A)[sp].d(A)[sp].[moe](T)p.[moe](G)p.[moe]([m5C])[sp].[moe](G)}$$$$ (last 3' nucleoside missing)	1 score 0-7
RNA1{[moe]([m5C])[sp].[moe](A)p.[moe]([m5C])p.[moe](A)[sp].[moe](G)[sp].d(T)[sp].d(T)[sp].d(T)[sp].d([m5C])[sp].d(A)[sp].d([m5C])[sp].d(T)[sp].d(A)[sp].d(G)[sp].d(G)[sp].[moe](T)p.[moe](T)p.[moe]([m5C])[sp].[moe](T)}$$$$ (last 3' nucleoside missing)	4 score 0-7
RNA1{[moe]([m5C])[sp].[moe](A)p.[moe]([m5C])p.[moe](A)p.[moe](G)[sp].d(T)[sp].d(T)[sp].d(T)[sp].d([m5C])[sp].d(A)[sp].d([m5C])[sp].d(T)[sp].d(A)[sp].d(G)[sp].d(G)[sp].[moe](T)p.[moe](T)p.[moe]([m5C])[sp].[moe](T)}$$$$ (last 3' nucleoside missing)	4.75 score 0-7
RNA1{[moe]([m5C])[sp].[moe](A)p.[moe]([m5C])p.[moe](A)p.[moe](G)p.d(T)[sp].d(T)[sp].d(T)[sp].d([m5C])[sp].d(A)[sp].d([m5C])[sp].d(T)[sp].d(A)[sp].d(G)[sp].d(G)[sp].[moe](T)p.[moe](T)p.[moe]([m5C])[sp].[moe](T)}$$$$ (last 3' nucleoside missing)	4.25 score 0-7
RNA1{[moe]([m5C])[sp].[moe](A)p.[moe]([m5C])p.[moe](A)p.[moe]([m5C])p.d(A)[sp].d([m5C])[sp].d(T)[sp].d(T)[sp].d(T)[sp].d(A)[sp].d(A)[sp].d(A)[sp].d(T)[sp].d(A)[sp].[moe]([m5C])p.[moe](A)p.[moe](G)[sp].[moe](G)}$$$$ (last 3' nucleoside missing)	6.5 score 0-7
RNA1{[moe]([m5C])[sp].[moe](G)p.[moe](G)p.[moe](A)p.[moe](T)p.d(T)[sp].d(G)[sp].d(T)[sp].d(T)[sp].d(T)[sp].d(T)[sp].d([m5C])[sp].d(T)[sp].d(T)[sp].d([m5C])[sp].[moe](A)p.[moe](T)p.[moe](T)[sp].[moe](A)}$$$$ (last 3' nucleoside missing)	1 score 0-7
RNA1{[moe]([m5C])[sp].[moe](G)p.[moe](T)p.[moe](A)p.[moe](T)[sp].d(G)[sp].d(T)[sp].d(T)[sp].d(T)[sp].d(G)[sp].d(T)[sp].d([m5C])[sp].d(T)[sp].[moe](G)p.[moe](T)p.[moe]([m5C])[sp].[moe](T)}$$$$ (last 3' nucleoside missing)	6 score 0-7
RNA1{[moe]([m5C])[sp].[moe](G)p.[moe](T)p.[moe](A)p.[moe](T)p.[moe](G)p.d(T)[sp].d(T)[sp].d(T)[sp].d(G)[sp].d(T)[sp].d([m5C])[sp].d(T)[sp].d(G)[sp].d(T)[sp].d([m5C])[sp].[moe](T)p.[moe](T)[sp].[moe](A)}$$$$ (last 3' nucleoside missing)	6.75 score 0-7
RNA1{[moe]([m5C])[sp].[moe](G)p.[moe](T)p.[moe](A)p.[moe](T)p.d(G)[sp].d(T)[sp].d(T)[sp].d(T)[sp].d(G)[sp].d(T)[sp].d([m5C])[sp].d(T)[sp].d(G)[sp].d(T)[sp].[moe]([m5C])p.[moe](T)p.[moe](T)[sp].[moe](A)}$$$$ (last 3' nucleoside missing)	6.25 score 0-7
RNA1{[moe]([m5C])[sp].[moe](G)p.[moe](T)p.[moe](A)p.d(T)[sp].d(G)[sp].d(T)[sp].d(T)[sp].d(T)[sp].d(G)[sp].d(T)[sp].d([m5C])[sp].d(T)[sp].d(G)[sp].[moe](T)p.[moe]([m5C])p.[moe](T)p.[moe](T)[sp].[moe](A)}$$$$ (last 3' nucleoside missing)	4 score 0-7
RNA1{[moe]([m5C])[sp].[moe](G)p.[moe](T)p.[moe](G)p.[moe](G)p.d(T)[sp].d(G)[sp].d(G)[sp].d(T)[sp].d(G)[sp].d(T)[sp].d(G)[sp].d([m5C])[sp].d(G)[sp].d([m5C])[sp].[moe](A)p.[moe](T)p.[moe](G)[sp].[moe](T)}$$$$ (last 3' nucleoside missing)	6.25 score 0-7
RNA1{[moe]([m5C])[sp].[moe](G)p.[moe](T)p.[moe](T)p.[moe](T)p.d([m5C])[sp].d([m5C])[sp].d(T)[sp].d(T)[sp].d([m5C])[sp].d(T)[sp].d([m5C])[sp].d([m5C])[sp].d([m5C])[sp].d(T)[sp].[moe](T)p.[moe](T)p.[moe](G)[sp].[moe](A)}$$$$ (last 3' nucleoside missing)	0 score 0-7
RNA1{[moe]([m5C])[sp].[moe](G)p.[moe]([m5C])p.[moe](G)p.[moe](G)p.d(T)[sp].d(G)[sp].d(A)[sp].d(A)[sp].d(T)[sp].d(T)[sp].d([m5C])[sp].d(T)[sp].d(G)[sp].d(T)[sp].[moe]([m5C])p.[moe](T)p.[moe]([m5C])[sp].[moe]([m5C])}$$$$ (last 3' nucleoside missing)	1 score 0-7
